The record followed here is publication PMC8110578, “Phenylethynylbenzyl-modified biguanides inhibit pancreatic cancer tumor growth” (Scientific Reports, 2021).

Where “and” joins values, the source holds several entries; their conditions need not be identical. Equal values may be shown once.

The test system of data set [1] is NB508 mouse pancreatic ductal adenocarcinoma cells. The data set can be described thus: In vitro growth inhibition screen at 5 µM, NB508 cells. Type of data set: cell-based. The conditions noted are these: 72 h at 37 °C. The text has this:
Figure 1 (A) Structure and crystal packing of previously studied PEB-disubstituted (A.1) and monosubstituted (A.2 and A.3) benzimidazolium salts. Compound A.1 is an efficient chloride transporter forming channels and generating holes in bacterial membranes and red blood cellular membranes. Compound A.2 penetrates phospholipid membranes but is less efficient as ion transporter as it forms more compact aggregates; its toxicity on RBC is lower than compound A.1. The replacement of the phenyl group with a methyl group in compound A.3 results in the formation of even more compact aggregates with even lower toxicity on RBC. (B) Structure of PEB-substituted biguanidium salts. For each biguanide we prepared three series of biguanidium salts with different counterions. (C) Synthesis of 4-(phenylethynyl)benzylbiguanide 1 and 4-(phenylethyl)benzylbiguanide 2; (a) Phenylacetylene, PdCl2PPh3, CuI, PPh3, Et3N, THF, 70 °C, o.n. (b) NaCN(BH3)3, EtOHNH4OAc sat./NH3, 80 °C, o.n (c) Dicyandiamide, TMSCl, THFanh., 145 °C, 1 h (d) Pd/C 10%, H2, EtOH/AcOEt, 60 °C, 2 h. (D) Synthesis of 4-(phenylethynylphenyl)biguanidium 3 and 4-(phenylethylphenyl)biguanidium 4 (a) (1) Boc2O, THF, 2 h, (2) Phenylacetylene, PdCl2PPh3, CuI, PPH3, Et3N, THF, 70°, o.n. (b) TFA, DCM, 60 °C, 2 h (c) Dicyandiamide, TMSCl, THFanh, 145 °C, 1 h (d) Pd/C 10%, H2, EtOH/AcOEt, 60 °C, 2 h. The NMR spectra of the synthesized compounds are given in Supplementary Figs. S1–S24. (E) Relative growth of NB508 mouse pancreatic ductal adenocarcinoma cells and IMR90 fibroblasts exposed to 5 µM of PEB-biguanidium salts. Cells were incubated for 72 h at 37 °C. Errors bars represent the standard error of the mean (SEM), *p < 0.05, **p < 0.01, Student’s t test. (F) Crystal structure of 1b showing its self-assembly in the solid state. Crystal data is available in Supplementary Tables S1–S8 and crystal packing in Supplementary Fig. S25. TEXT PRINTED IN THE PICTURE: (A) A.1: HC50: 0.15 mM | (A) A.2: HC50: 1 mM | (A) A.3: HC50: 150 mM
NB508 is an aggressive pro-metastatic pancreatic cancer cell line that we used previously to study the role of mitochondria in pancreatic cancer. […].

Data set [2] can be described thus: U-tube experiment (partition across a bulk hydrophobic solvent). Conditions: 250 µM on cis side; for Crossing to the trans-aqueous side of the U-tube (in words): up to 72 h; for Trans-side concentration, mean / Trans-side concentration, single replicates: 25°C. The class given is physicochemical. As to the method:
Figure 2 (A) Partition of compounds in an U-tube experiment. Concentration of biguanide on the trans-side of the U-tube at 48 h and 72 h at 25 °C, after addition of 250 µM of biguanide on the cis-side. (B) Variation in the internal pH of HPTS-containing EYPC liposomes. Intravesicular solution: 1 mM HPTS, 10 mM HEPES, and 100 mM NaCl, adjusted to pH = 7.4, and extravesicular solution: 10 mM HEPES and 100 mM NaCl, adjusted to pH = 7.4. Biguanidiums were injected after 50 s at 5 mM (50 mol% relative to the 10 mM EYPC concentration), a NaOH pulse was induced at 300 s, and the liposomes were lysed with Triton-X at 550 s. Each curve is the average of three independent measurements. (C) Fluorescence of safranin O in the EYPC liposomes. Biguanidium salts were injected at 5 mM (50 mol% relative to the 10 mM EYPC concentration) at 50 s. Each curve is the average of three independent measurements. […] Mitochondrial isolation was performed according to the previously reported protocol.
Experimental. U-tube experiment was prepared by adding 800 µL of dichloromethane in a U-shaped tube as a representation of the hydrophobic lipid membrane. On the receiving end (trans side) of the tube was added 300 µL of distilled water while the other side (cis side) was filled with 300 µL of a 250 µM solution of the compound of interest at 25°C. At 48h and 72h, 100 µL aliquot of the trans side was diluted in 900 µL methanol and monitored by LCMS (292 m/z). Area under curve (AUC) was measured and fitted on a calibration curve.

Consider `N=C(N)NC(=N)NCc1ccc(C#Cc2ccccc2)cc1` [1b, 4-(phenylethynyl)benzylbiguanide], for which, in data set [1], the “Growth inhibition of NB508 cells” value is reported as “most important antiproliferative activities”. Further, the “Crossing to the trans-aqueous side of the U-tube (in words)” value in data set [2] was “able to partition rapidly into the chloroform and cross to the trans-aqueous side”. Besides, in data set [2] (48h), the “Trans-side concentration, mean” value is on record as 64,7 µM; the “Trans-side concentration, single replicates” value was 90,1 µM and 57,1 µM and 46,8 µM. In data set [2] (72h), the “Trans-side concentration, mean” value is given as 92,3 µM; the “Trans-side concentration, single replicates” value was 78,6 µM and 99,3 µM and 99,1 µM.
As for `CN(C)C(=N)NC(=N)N` [metformin, 1,1-dimethylbiguanide, reference compound], the “Growth inhibition of NB508 cells” value in data set [1] is recorded as “no effect was observed”. Besides, the “Crossing to the trans-aqueous side of the U-tube (in words)” value in data set [2] is “only traces”.
